The source of these data is ChEMBL document CHEMBL1201862, “PubChem BioAssay data set” (2004).

Some test systems named below: A498; ACHN; HCC 2998; HCT-15; HOP-62; HT-29; K562; MDA-MB-435; MOLT-4; OVCAR-4; SF-295; SK-OV-3; SN12C; SNB-19; SNB-75; HL-60; IGROV-1; NCI-H522; RXF 393; LOX IMVI.
Holding throughout (assay): NCI-60 cell line screen, 48 h

The structures appear in SMILES notation.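 These data come from cells grown in 96-well plates and exposed to compound for 48 hours at five concentrations. Abbreviation: GI50, concentration required for 50% inhibition of growth.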 The source made the active and inactive calls. Rule as the data show it: active = GI50 up to about 1.1 µM and inactive = higher.

For the compound `Cc1cccc(N/C(Sc2ccccc2)=C(/C(Cl)=C(Cl)Cl)[N+](=O)[O-])c1`, the GI50 in the test on A498 is 16.8 µM (inactive); with ACHN, 26.4 µM (inactive); in the test with HCC 2998, 39.4 µM (inactive); in the test on HCT-15, 15.3 µM; in the test with HOP-62 it was 20.3 µM (inactive); in the test with HT-29, 17.6 µM (inactive). Further, the GI50 with K562 was 20.3 µM (inactive); with MDA-MB-435 it was 17.7 µM (inactive); in the test on MOLT-4, 21.5 µM (inactive); with OVCAR-4 it was 17.5 µM (inactive); in the test on SF-295, 17.1 µM (inactive); in the test with SK-OV-3, 20.5 µM (inactive). The GI50 in the test with SN12C is 15.3 µM (inactive); in the test with SNB-19, 28.7 µM (inactive); with SNB-75, 26.1 µM (inactive).

For `O=c1cc(-c2ccccc2)[nH]c2cccc(S)c12`, the GI50 is 0.804 µM (active) with ACHN; 0.344 µM (active) in the test with HCC 2998; 0.344 µM in the test with HCT-15; 0.201 µM (active) in the test with HL-60; 0.331 µM (active) in the test with HOP-62; 0.202 µM (active) with HT-29. For the same compound, the GI50 in the test with IGROV-1 was 0.341 µM (active); with K562, 0.0588 µM (active); in the test with MDA-MB-435, 0.0299 µM (active); in the test on MOLT-4, 0.37 µM (active); in the test with NCI-H522, 0.0782 µM (active); in the test with OVCAR-4 it was 4.8 µM (inactive). Moreover, the GI50 with RXF 393 is 0.164 µM (active); with SF-295, 0.115 µM (active); with SK-OV-3 it was 0.119 µM (active); in the test on SN12C, 0.462 µM (active); in the test on SNB-19, 0.375 µM (active).

In the case of `COc1c(-c2nc3ccc(N4CCN(C)CC4)nc3[nH]2)cc(OC)c2c1nc(CCl)n2C`, the GI50 in the test with ACHN is 13.7 µM (inactive); with HCC 2998, 15.7 µM (inactive); with HCT-15, 26.3 µM; with HL-60, 26.5 µM (inactive); in the test on HOP-62, 21.4 µM (inactive); in the test with HT-29, 16.3 µM (inactive). The GI50 in the test on IGROV-1 is 18.4 µM (inactive); in the test with K562 it was 29 µM (inactive); in the test with LOX IMVI, 10.8 µM (inactive); in the test with MDA-MB-435 it was 16.1 µM (inactive); in the test with MOLT-4, 18.1 µM (inactive); in the test on NCI-H522, 10.5 µM (inactive). Also, the GI50 was 18.3 µM (inactive) in the test with OVCAR-4; 16 µM (inactive) with RXF 393; 31.8 µM (inactive) with SF-295; 28.8 µM (inactive) in the test with SK-OV-3; 20.9 µM (inactive) with SN12C; 28.2 µM (inactive) in the test on SNB-19. Moreover, the GI50 in the test with SNB-75 was 12.6 µM (inactive).

Turning to `COC(=O)[C@@]1(Cc2ccc(OC(C)=O)cc2)Cc2cc3ccccc3n2N1`, the GI50 was 23.1 µM (inactive) with A498; 58.1 µM (inactive) in the test on ACHN; 53.5 µM with HCT-15; 20.3 µM (inactive) with HL-60; > 100 µM (inactive) in the test on HOP-62; 36 µM (inactive) with HT-29. Moreover, the GI50 was 55.8 µM (inactive) in the test with IGROV-1; 38.6 µM (inactive) with LOX IMVI; 43.6 µM (inactive) with MDA-MB-435; 26.8 µM (inactive) in the test on MOLT-4; 24 µM (inactive) in the test with NCI-H522; 75.5 µM (inactive) with OVCAR-4. The GI50 in the test with SF-295 is 46.8 µM (inactive); in the test with SK-OV-3, > 100 µM (inactive); with SN12C, 29.6 µM (inactive); in the test on SNB-19, 93.8 µM (inactive).

As to `N#CC(O)CCOCc1ccccc1` (centres undefined), the GI50 with A498 was > 100 µM (inactive); in the test on ACHN, 39.4 µM (inactive); in the test on HCT-15, 52.4 µM; with HL-60, 34.4 µM (inactive); in the test on HOP-62, > 100 µM (inactive); in the test with HT-29, 38.6 µM (inactive). For the same compound, the GI50 in the test on IGROV-1 is > 100 µM (inactive); in the test with K562, 80.7 µM (inactive); in the test on LOX IMVI it was 46.9 µM (inactive); in the test with MDA-MB-435, > 100 µM (inactive); with MOLT-4 it was 3.39 µM (inactive); with NCI-H522, 20.5 µM (inactive). For the same compound, the GI50 in the test on OVCAR-4, in the test on SF-295, in the test with SK-OV-3, in the test on SN12C and with SNB-19 was > 100 µM (inactive) in each case.

Consider `O=C1/C(=N/N=C(c2ccccc2)c2ccccc2)c2ccccc2-c2ccccc21`, for which the GI50 with ACHN is 65.9 µM (inactive); in the test with HCT-15, 37.8 µM; with HL-60, > 100 µM (inactive); with HOP-62, > 100 µM (inactive); in the test on HT-29 it was > 100 µM (inactive); in the test on IGROV-1, 73.1 µM (inactive). Besides, the GI50 is > 100 µM (inactive) in the test with K562; 56.4 µM (inactive) in the test with LOX IMVI; > 100 µM (inactive) with MDA-MB-435; 22.5 µM (inactive) in the test with MOLT-4; 54.8 µM (inactive) in the test on NCI-H522; 77.3 µM (inactive) in the test on OVCAR-4. For the same compound, the GI50 in the test with RXF 393 is > 100 µM (inactive); with SF-295 it was 64 µM (inactive); with SK-OV-3 it was > 100 µM (inactive); with SN12C, 71.1 µM (inactive); in the test on SNB-19, > 100 µM (inactive); in the test with SNB-75, > 100 µM (inactive).

On to `CCCCCCCCCCCCCCCCCc1nc(C#N)c(N)o1`, for which the GI50 in the test on A498 was > 100 µM (inactive); in the test with ACHN it was 96.6 µM (inactive); in the test on HCT-15, 86.9 µM; in the test with HL-60, 3.53 µM (inactive); in the test with HOP-62, > 100 µM (inactive); in the test on HT-29, > 100 µM (inactive). Moreover, the GI50 with IGROV-1 was 12.1 µM (inactive); in the test with K562, 22.7 µM (inactive); in the test on LOX IMVI it was 54.3 µM (inactive); in the test on MDA-MB-435, > 100 µM (inactive); in the test on MOLT-4 it was 5.06 µM (inactive); with SK-OV-3, > 100 µM (inactive). Also, the GI50 in the test on SN12C was 61 µM (inactive); with SNB-19, 73.8 µM (inactive); in the test on SNB-75, 21.4 µM (inactive).

On to `CCc1nnc(CC)n1NCCCC(=O)O`, for which the GI50 is > 100 µM (inactive) in the test on ACHN; > 100 µM (inactive) with HCC 2998; more than 100 µM with HCT-15; > 100 µM (inactive) with HOP-62; > 100 µM (inactive) with HT-29; > 100 µM (inactive) with IGROV-1. Besides, the GI50 in the test on K562, in the test on LOX IMVI, with MDA-MB-435, with MOLT-4, in the test with NCI-H522 and in the test with OVCAR-4 was > 100 µM (inactive) in each case. For the same compound, the GI50 in the test with RXF 393, in the test with SF-295, in the test with SK-OV-3, with SN12C, in the test with SNB-19 and in the test with SNB-75 was > 100 µM (inactive) each time.

In the case of `O=c1c2ccccc2[nH]c(=S)n1-c1ccc(/N=N/c2cccc3cc(O)ccc23)cc1`, the GI50 was > 100 µM (inactive) with ACHN; > 100 µM (inactive) in the test with HCC 2998; 36.3 µM in the test on HCT-15; 22.3 µM (inactive) in the test with HL-60; > 100 µM (inactive) with HOP-62; > 100 µM (inactive) in the test with HT-29. The GI50 is 64.9 µM (inactive) in the test on IGROV-1; 73.6 µM (inactive) with K562; 43.5 µM (inactive) with LOX IMVI; > 100 µM (inactive) in the test on MDA-MB-435; > 100 µM (inactive) with MOLT-4; > 100 µM (inactive) in the test on NCI-H522. In addition, the GI50 in the test with OVCAR-4, in the test with RXF 393, with SF-295, in the test with SK-OV-3, with SN12C and with SNB-19 was > 100 µM (inactive) each time. In the test on SNB-75, the GI50 was > 100 µM (inactive).
